Holding throughout (assay type): cell-based, Saccharomyces cerevisiae
Test [1] concerns gene-disrupted strain DEL002 (YDR027C) transformed with a plasmid p-YBR072W. Description: promoter assay (GFP reporter), Example 2. Conditions: GFP fluorescence 4 hours after loading, parent strain BY4743. As for the experimental part: (§1) In a gene-disrupted strain, a growing rate becomes small so much, or medium components in which the strain can be grown are different in some cases, depending on a disrupted gene. Then, in the present experiment studying a host cell of a promoter assay method, in view of easy comparison with a control experiment, among gene-disrupted strains obtained as the result of Example 1, a few strains which have sensitivity to many chemicals and are grown by the same procedure as that of a parent strain were selected. Selected gene-disrupted strains are 8 strains of DEL000, DEL002, DEL011, DEL014, DEL016, DEL019, DEL022 and DEL025 in Table 7. Further, as a control, a parent strain, BY4743 was used.
(§2) A competent cell of each of a parent strain of a gene-disrupted strain and selected gene-disrupted strains was prepared. This competent cell was transformed using two kinds of prepared plasmids for promoter assay, p-YBR072W (in which GFP was connected understream of a promoter of YBR072W) and p-YPL171C (in which GFP was connected downstream of a promoter of YPL171C).
(§3) The resulting transformant was grown to the steady state by shaking-culturing on a SD medium (histidine, leucine) at 25° C. The transformant in the steady state was diluted 500-fold with the same medium, shaking-cultured at 25° C. for 15 hours and, after it was confirmed that an absorbance at 600 nm was 0.2 to 0.5 as a logarithmic growth phase, chemicals having different concentrations were loaded. After loading of chemicals, fluorescence of cells which had been cultured for 4 hours was measured using a flow cytometer (FITC filter, EPICS XL-MCL, Bechmancoulter), and this was adopted as an expression amount of GFP (green fluorescence protein) which is a marker gene. A fluorescence intensity of 10000 cells was measured with a flow cytometer by one measurement and an average of fluorescence intensities of all cells was obtained, and was adopted as a measured value. Similarly, a fluorescence intensity of a cell to which a chemical had not been loaded was obtained, and results are shown as a fluorescence intensity ratio.

Test [2] relates to gene-disrupted strain DEL019 (YIL036W) transformed with a plasmid p-YBR072W. In words: promoter assay (GFP reporter), Example 2. As to conditions: strain printed DEL019025, p-YBR072W, GFP fluorescence 4 hours after loading, parent strain BY4743. As for the experimental part: as §1, §2, §3
For test [3], the system named is gene-disrupted strain DEL016 (YCR028C) transformed with a plasmid p-YBR072W. In words: promoter assay (GFP reporter), Example 2. Conditions: GFP fluorescence 4 hours after loading, parent strain BY4743. As for the experimental part:
as §1, §2, §3

Test [4] has as its system gene-disrupted strain DEL011 (YGL240W) transformed with a plasmid p-YBR072W. Description: promoter assay (GFP reporter), Example 2. As to conditions: GFP fluorescence 4 hours after loading, parent strain BY4743. As for the experimental part: as §1, §2, §3
Test [5] deals with gene-disrupted strain DEL025 (YLR311C) transformed with a plasmid p-YBR072W. In words: promoter assay (GFP reporter), Example 2. Conditions: strain printed DEL, p-YBR072W, GFP fluorescence 4 hours after loading, parent strain BY4743. The method, then:
as §1, §2, §3

The subject of test [6] is gene-disrupted strain DEL011 (YGL240W) transformed with a plasmid p-YPL171C. Description: promoter assay (GFP reporter), Example 2. Conditions: GFP fluorescence 4 hours after loading, parent strain BY4743. The method, then:
as §1, §2, §3

Test [7] concerns gene-disrupted strain DEL016 (YCR028C) transformed with a plasmid p-YPL171C. Description: promoter assay (GFP reporter), Example 2. As to conditions: GFP fluorescence 4 hours after loading, parent strain BY4743. The method, then: as §1, §2, §3
Test [8] relates to homozygous diploid of gene-disrupted strain DEL008 (YLR447C) transformed with a plasmid p-YPL171C. In words: promoter assay (GFP reporter), Example 3. Conditions: W303 background. The text has this: (§4) In order to prepare a gene-disrupted strain transformation cassette, genes having chemical sensitivity; YPR036W(DEL000), YDL151C(DEL001), YGL026C(DEL003), YHR039C-A(DEL006), YKL080W(DEL007), YLR447C(DEL008), YGR006W(DEL012), YGR105W(DRL013), YJR104C(DEL014), YGL206C(DEL018), YIL036W(DEL019), YKL119C(DEL020), YLR226W(DEL022) and YLR311C(DEL025) in Table 7 were selected, and each gene was replaced with a transformation marker such as kanamycin resistance. As primers for performing PCT amplification, a N-terminal side (ORF(upper)) and a C-terminal side (ORF(lower)) in each ORF were used. A length of a sequence (ORF(upper) and ORF(lower)) of a primer homologues with ORF was 46 or 50 bp.
(§5) A W303 a mating type (ATCC200903) and a W303α mating type (ATCC201238) in which the same gene was gene disruption-manipulated were mated by a mating procedure (Yeast Gene Experimental Manual: Maruzen Co., Ltd., p 83-92) to prepare homozygous diploids. Separately, mating of a W303a mating type, and a non-gene-disrupted W303α type was performed by the similar procedure to prepare heterozygous diploids.
(§6) By such the procedure, homozygous diploids of DEL000, DEL001, DEL003, DEL006, DEL007, DEL008, DEL012, DEL013, DEL014, DEL018, DEL019, DEL020, DEL022 and DEL025 in Table 7 were prepared. In addition, heterozygous diploids in which DEL006, DEL014 and DEL 022 were mated with a non-gene-disrupted strain (hereafter, referred to as DEL006 heterozygous diploid, DEL 014 heterozygous diploid, DEL022 heterozygous diploid) and, further, a heterozygous diploid in which DEL000 and DEL014 were mated (hereafter, referred to as DEL000/014 heterozygous diploid) were prepared.
(§7) Competent cells of W303 ATCC201239 (MATa/MATα leu2-3/leu2-3 leu2-112/leu2-112 trp1-1/trp1-1 ura3-1/ura3-1 his 3-11/his3-11 his3-15/his3-15 ade2-1/ade2-1 can1-100/can1-100) which is a parent strain of gene-disrupted strains, and each of prepared gene-disrupted strains were prepared. The competent cells were transformed using two kind of prepared plasmid for promoter assay, p-YBR072W (in which GFP is connected downstream of a promoter of YBR072W) and p-YPL171C (in which GFP is connected downstream of a promoter of YPL171C).
(§8) The resulting transformant was grown to the steady state by shaking-culturing on a SD medium (adenine, hystidine, triptophan, leucine) at 25° C. The transformant in the steady state was diluted 500-fold with the same medium, shaking-cultured at 25° C. for 15 hours and, after it was confirmed that an absorbance at 600 nm was 0.2 to 0.5 as a logarithmic growth phase, chemicals having different concentrations were loaded. After loading of chemicals, fluorescence of cells which had been cultured for 4 hours was measured using a flow cytometer (FITC filter, EPICS XL-MCL, Bechmancoulter), and this was adopted as an expression amount of GFP (green fluorescence protein) which is a marker gene. A fluorescence intensity of 10000 cells was measured with a flow cytometer by one measurement and an average of fluorescence intensities of all cells was obtained, and was adopted as a measured value. Similarly, a fluorescence intensity of a cell to which a chemical had not been loaded was obtained, and results are shown as difference in a fluorescence intensity.

In test [9] the test system is homozygous diploid of gene-disrupted strain DEL006 (YHR039C-A) transformed with a plasmid p-YPL171C. Description: promoter assay (GFP reporter), Example 3. Conditions: W303 background.
Description: as §4, §5, §6, §7, §8

Test [10] concerns homozygous diploid of gene-disrupted strain DEL022 (YLR226W) transformed with a plasmid p-YPL171C. In words: promoter assay (GFP reporter), Example 3. Conditions: W303 background.
Description: as §4, §5, §6, §7, §8

The subject of test [11] is homozygous diploid of gene-disrupted strain DEL014 (YJR104C) transformed with a plasmid p-YPL171C. In words: promoter assay (GFP reporter), Example 3. As to conditions: W303 background.
Description: as §4, §5, §6, §7, §8

The subject of test [12] is heterozygous diploid DEL000/014 transformed with a plasmid p-YPL171C. Description: promoter assay (GFP reporter), Example 3. Conditions: heterozygous diploid DEL000/014, p-YPL171C, W303 background.
Description: as §4, §5, §6, §7, §8

The test system of test [13] is homozygous diploid of gene-disrupted strain DEL003 (YGL026C) transformed with a plasmid p-YPL171C. Description: promoter assay (GFP reporter), Example 3. As to conditions: W303 background.
Description: as §4, §5, §6, §7, §8

Test [14] has as its system gene-disrupted strain DEL014 (YJR104C) transformed with a plasmid p-YBR072W. In words: promoter assay (GFP reporter), Example 2. As to conditions: GFP fluorescence 4 hours after loading, parent strain BY4743. The method, then: as §1, §2, §3
In test [15] the test system is homozygous diploid of gene-disrupted strain DEL001 (YDL151C) transformed with a plasmid p-YPL171C. In words: promoter assay (GFP reporter), Example 3. Conditions: W303 background.
Description: as §4, §5, §6, §7, §8

Test [16] concerns homozygous diploid of gene-disrupted strain DEL020 (YKL119C) transformed with a plasmid p-YPL171C. In words: promoter assay (GFP reporter), Example 3. As to conditions: DEL0020 homozygous diploid, W303 background.
Description: as §4, §5, §6, §7, §8

Test [17] relates to heterozygous diploid of gene-disrupted strain DEL006 (YHR039C-A) transformed with a plasmid p-YPL171C. Description: promoter assay (GFP reporter), Example 3. Conditions: W303 background.
Description: as §4, §5, §6, §7, §8

Test [18] concerns homozygous diploid of gene-disrupted strain DEL007 (YKL080W) transformed with a plasmid p-YPL171C. Description: promoter assay (GFP reporter), Example 3. Conditions: W303 background.
Description: as §4, §5, §6, §7, §8

`[Cl][Cd][Cl]` [cadmium chloride]: the “concentration at which the strain responded, as fraction of a concentration of a parent strain” value in test [1], in test [2], in test [3], in [4] and in test [5] was 1/3 in each case.
Regarding `[Cl][Hg][Cl]` [mercuric chloride], the entries for the “concentration at which the strain responded, as fraction of a concentration of a parent strain” value in test [6] and in test [7] were 1/10 and 1/3, respectively.
On to `O=[As][O-].[Na+]` [sodium metaarsenite], for which the “concentration at which sensitivity is shown, as fraction of a concentration of a gene-non-disrupted strain” value is 1/3 in [8]; 1/30 in test [9]; 1/3 in test [10]; 1/30 in [11]; 1/30 in test [12]; 1/3 in test [13]. Further, the “concentration at which the strain responded, as fraction of a concentration of a parent strain” value in [3] was 1/3; in test [6], 1/3; in test [4] it was 1/10; in test [14], 1/3000.
As for `CN(C)C(=S)SSC(=S)N(C)C` [thiuram], the “concentration at which sensitivity is shown, as fraction of a concentration of a gene-non-disrupted strain” value in test [15] is given as 1/3; in test [9], 1/10; in test [10] it was 1/1000; in [16] it was 1/3; in test [17] it was 1/10; in test [18], 1/1000.
